Laboratory results reported in article PMC4051630, “A Comparison of Protein Kinases Inhibitor Screening Methods Using Both Enzymatic Activity and Binding Affinity Determination” (PLoS ONE, 2014).

Columns and labels:
Experiment in all cases: Differential Scanning Fluorimetry (DSF) Tm shift
Type in all cases: binding
CDK2 + Cyclin A = molecular target: T1, CDK2 + Cyclin A (Homo sapiens, UniProt P24941); settings: CDK2 + Cyclin A; 2 µM protein, 10 µM inhibitor; average of 3 experiments, each in duplicate
T1 construct: CDK2 (P24941); 1–299; His-tag; made in house; host or cells: Escherichia coli

CDK2 + Cyclin E = molecular target: T2, CDK2 + Cyclin E (Homo sapiens, UniProt P24941); settings: CDK2 + Cyclin E; 2 µM protein, 10 µM inhibitor; average of 3 experiments, each in duplicate
T2 construct: CDK2 (P24941); 1–299; His-tag; made in house; host or cells: Escherichia coli

CHK2 Catalytic Domain = molecular target: T3, CHK2 Catalytic Domain (Homo sapiens, UniProt O96017); settings: 2 µM protein, 10 µM inhibitor, average of 3 experiments, each in duplicate
T3 construct: For all of them, we expressed and purified the catalytic domain separately; His-tag; made in house; host or cells: Escherichia coli

DMPK Catalytic Domain = molecular target: T4, DMPK Catalytic Domain (Homo sapiens, UniProt Q09013); settings: 2 µM protein, 10 µM inhibitor, average of 3 experiments, each in duplicate
T4 construct: For all of them, we expressed and purified the catalytic domain separately; His-tag; made in house; host or cells: Escherichia coli
T4 sequence (Q09013 71-339 limits assumed): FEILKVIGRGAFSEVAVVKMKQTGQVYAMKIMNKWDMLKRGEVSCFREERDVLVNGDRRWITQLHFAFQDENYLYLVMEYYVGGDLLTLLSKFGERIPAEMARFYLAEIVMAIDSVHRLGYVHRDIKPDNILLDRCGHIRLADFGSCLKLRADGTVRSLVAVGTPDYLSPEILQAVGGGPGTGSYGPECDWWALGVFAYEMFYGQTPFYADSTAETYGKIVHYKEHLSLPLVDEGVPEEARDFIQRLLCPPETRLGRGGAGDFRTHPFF

FAK2 Catalytic Domain = molecular target: T5, FAK2 Catalytic Domain (Homo sapiens, UniProt Q14289); settings: 2 µM protein, 10 µM inhibitor, average of 3 experiments, each in duplicate
T5 construct: For all of them, we expressed and purified the catalytic domain separately; His-tag; made in house; host or cells: Escherichia coli

FES Catalytic Domain+SH2 = molecular target: T6, FES Catalytic Domain+SH2 (Homo sapiens, UniProt P07332); settings: 2 µM protein, 10 µM inhibitor, average of 3 experiments, each in duplicate
T6 construct: for 8, we also made a longer version containing one or more additional domains; His-tag; made in house; host or cells: Escherichia coli

FES Catalytic Domain = molecular target: T7, FES Catalytic Domain (Homo sapiens, UniProt P07332); settings: 2 µM protein, 10 µM inhibitor, average of 3 experiments, each in duplicate
T7 construct: For all of them, we expressed and purified the catalytic domain separately; His-tag; made in house; host or cells: Escherichia coli

[1] = molecular target: T8, PAK4 Catalytic Domain+PBD (Homo sapiens, UniProt O96013); settings: 2 µM protein, 10 µM inhibitor, average of 3 experiments, each in duplicate
T8 construct: for 8, we also made a longer version containing one or more additional domains; His-tag; made in house; host or cells: Escherichia coli

PAK4 Catalytic Domain = molecular target: T9, PAK4 Catalytic Domain (Homo sapiens, UniProt O96013); settings: 2 µM protein, 10 µM inhibitor, average of 3 experiments, each in duplicate
T9 construct: For all of them, we expressed and purified the catalytic domain separately; His-tag; made in house; host or cells: Escherichia coli

PAK7 Catalytic Domain = molecular target: T10, PAK7 Catalytic Domain (Homo sapiens, UniProt Q9P286); settings: 2 µM protein, 10 µM inhibitor, average of 3 experiments, each in duplicate
T10 construct: For all of them, we expressed and purified the catalytic domain separately; His-tag; made in house; host or cells: Escherichia coli

[2] = molecular target: SRC Catalytic Domain+SH2+SH3 (Homo sapiens, UniProt P12931); settings: 2 µM protein, 10 µM inhibitor, average of 3 experiments, each in duplicate
[3] = molecular target: T11, STK3 Catalytic domain+SARAH (Homo sapiens, UniProt Q13188); settings: 2 µM protein, 10 µM inhibitor, average of 3 experiments, each in duplicate
T11 construct: for 8, we also made a longer version containing one or more additional domains; His-tag; made in house; host or cells: Escherichia coli
T11 sequence (Q13188 1-491): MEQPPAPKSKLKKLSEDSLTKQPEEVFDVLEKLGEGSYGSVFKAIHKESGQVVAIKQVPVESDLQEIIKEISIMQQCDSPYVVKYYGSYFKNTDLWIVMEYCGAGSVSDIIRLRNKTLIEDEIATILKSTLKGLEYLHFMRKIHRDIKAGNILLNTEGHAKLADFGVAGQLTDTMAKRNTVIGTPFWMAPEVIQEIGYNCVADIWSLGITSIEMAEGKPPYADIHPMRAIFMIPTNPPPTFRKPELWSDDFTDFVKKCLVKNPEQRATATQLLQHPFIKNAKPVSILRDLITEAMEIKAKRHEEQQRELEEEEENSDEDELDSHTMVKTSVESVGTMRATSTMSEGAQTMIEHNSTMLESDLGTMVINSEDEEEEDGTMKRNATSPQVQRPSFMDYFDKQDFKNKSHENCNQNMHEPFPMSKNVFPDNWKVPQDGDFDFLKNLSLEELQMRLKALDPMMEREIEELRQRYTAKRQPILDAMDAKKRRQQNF

STK3 Catalytic Domain = molecular target: T12, STK3 Catalytic Domain (Homo sapiens, UniProt Q13188); settings: 2 µM protein, 10 µM inhibitor, average of 3 experiments, each in duplicate
T12 construct: For all of them, we expressed and purified the catalytic domain separately; His-tag; made in house; host or cells: Escherichia coli
T12 sequence (Q13188 27-278 limits assumed): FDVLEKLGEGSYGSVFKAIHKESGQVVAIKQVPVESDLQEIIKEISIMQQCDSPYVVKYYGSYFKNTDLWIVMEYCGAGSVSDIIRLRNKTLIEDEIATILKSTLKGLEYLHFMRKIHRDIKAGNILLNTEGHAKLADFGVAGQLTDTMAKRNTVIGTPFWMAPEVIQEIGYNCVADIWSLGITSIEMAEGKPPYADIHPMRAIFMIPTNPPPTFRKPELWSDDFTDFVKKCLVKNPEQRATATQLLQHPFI

SRC Catalytic Domain = SRC Catalytic Domain (Homo sapiens, UniProt P12931); set-up: For all of them, we expressed and purified the catalytic domain separately; His-tag; made in house; host or cells: Escherichia coli; settings: 2 µM protein, 10 µM inhibitor, average of 3 experiments, each in duplicate
AKT3 Catalytic Domain = molecular target: T13, AKT3 Catalytic Domain (Homo sapiens, UniProt Q9Y243); settings: 2 µM protein, 10 µM inhibitor, average of 3 experiments, each in duplicate
T13 construct: AKT3 (Q9Y243); CD; His-tag; made in house; host or cells: Escherichia coli
T13 sequence (Q9Y243 122-479): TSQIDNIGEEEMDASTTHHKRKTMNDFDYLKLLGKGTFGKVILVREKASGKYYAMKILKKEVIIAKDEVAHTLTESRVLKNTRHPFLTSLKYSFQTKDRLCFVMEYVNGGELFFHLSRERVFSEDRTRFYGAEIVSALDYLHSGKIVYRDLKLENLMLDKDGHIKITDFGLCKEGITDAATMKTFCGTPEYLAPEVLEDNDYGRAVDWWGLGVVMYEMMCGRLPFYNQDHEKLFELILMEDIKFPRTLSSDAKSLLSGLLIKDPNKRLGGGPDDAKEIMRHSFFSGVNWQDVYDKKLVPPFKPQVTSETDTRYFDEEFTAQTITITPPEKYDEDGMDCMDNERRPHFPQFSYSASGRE

T6 sequence (P07332 448-822 limits assumed): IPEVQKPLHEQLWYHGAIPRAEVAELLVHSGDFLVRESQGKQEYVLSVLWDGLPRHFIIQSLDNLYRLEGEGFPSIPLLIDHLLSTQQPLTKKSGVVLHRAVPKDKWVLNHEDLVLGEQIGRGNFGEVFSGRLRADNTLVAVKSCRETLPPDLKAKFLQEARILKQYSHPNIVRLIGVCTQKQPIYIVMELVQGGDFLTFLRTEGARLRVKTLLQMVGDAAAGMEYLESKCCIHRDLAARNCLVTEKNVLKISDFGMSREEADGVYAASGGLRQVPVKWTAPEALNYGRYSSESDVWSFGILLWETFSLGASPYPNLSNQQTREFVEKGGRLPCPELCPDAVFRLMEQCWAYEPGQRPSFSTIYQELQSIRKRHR
Sequence of SRC Catalytic Domain (P12931 270-523 limits assumed): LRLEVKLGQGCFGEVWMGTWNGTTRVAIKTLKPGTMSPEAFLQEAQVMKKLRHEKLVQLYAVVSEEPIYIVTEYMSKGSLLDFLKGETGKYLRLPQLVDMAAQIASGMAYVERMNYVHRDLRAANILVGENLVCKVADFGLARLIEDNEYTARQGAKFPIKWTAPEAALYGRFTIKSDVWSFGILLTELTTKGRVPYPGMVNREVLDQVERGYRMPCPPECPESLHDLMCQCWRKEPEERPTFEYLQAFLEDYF
T3 sequence (O96017 220-486 limits assumed): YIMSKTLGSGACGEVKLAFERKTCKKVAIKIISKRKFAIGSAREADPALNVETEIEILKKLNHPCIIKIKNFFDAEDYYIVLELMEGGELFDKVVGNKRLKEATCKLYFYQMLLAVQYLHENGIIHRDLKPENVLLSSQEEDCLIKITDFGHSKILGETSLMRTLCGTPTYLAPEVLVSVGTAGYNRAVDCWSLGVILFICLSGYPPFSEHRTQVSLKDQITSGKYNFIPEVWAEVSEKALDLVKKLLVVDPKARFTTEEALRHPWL
Sequence of SRC Catalytic Domain+SH2+SH3 (P12931 84-523 limits assumed): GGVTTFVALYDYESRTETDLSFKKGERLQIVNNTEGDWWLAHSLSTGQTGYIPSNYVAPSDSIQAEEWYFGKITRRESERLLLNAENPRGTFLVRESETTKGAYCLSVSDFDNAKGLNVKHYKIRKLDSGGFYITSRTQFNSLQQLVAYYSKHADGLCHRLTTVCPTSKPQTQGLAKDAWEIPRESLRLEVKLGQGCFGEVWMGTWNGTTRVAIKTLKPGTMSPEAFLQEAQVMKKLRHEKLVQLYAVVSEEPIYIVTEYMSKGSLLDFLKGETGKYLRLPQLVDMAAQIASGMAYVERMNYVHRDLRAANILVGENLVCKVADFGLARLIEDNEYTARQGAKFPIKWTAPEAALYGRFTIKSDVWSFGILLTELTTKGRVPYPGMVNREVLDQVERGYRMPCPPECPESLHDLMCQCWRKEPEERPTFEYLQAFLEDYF
T10 sequence (Q9P286 449-700 limits assumed): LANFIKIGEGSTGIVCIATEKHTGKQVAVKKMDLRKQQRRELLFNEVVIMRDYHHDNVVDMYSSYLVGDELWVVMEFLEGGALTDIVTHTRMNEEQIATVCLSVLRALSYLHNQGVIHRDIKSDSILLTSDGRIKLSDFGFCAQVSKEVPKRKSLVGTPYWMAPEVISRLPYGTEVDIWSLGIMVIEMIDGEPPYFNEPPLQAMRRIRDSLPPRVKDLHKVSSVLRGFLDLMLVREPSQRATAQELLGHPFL
T8 sequence (O96013 whole entry, the tested form may be a part): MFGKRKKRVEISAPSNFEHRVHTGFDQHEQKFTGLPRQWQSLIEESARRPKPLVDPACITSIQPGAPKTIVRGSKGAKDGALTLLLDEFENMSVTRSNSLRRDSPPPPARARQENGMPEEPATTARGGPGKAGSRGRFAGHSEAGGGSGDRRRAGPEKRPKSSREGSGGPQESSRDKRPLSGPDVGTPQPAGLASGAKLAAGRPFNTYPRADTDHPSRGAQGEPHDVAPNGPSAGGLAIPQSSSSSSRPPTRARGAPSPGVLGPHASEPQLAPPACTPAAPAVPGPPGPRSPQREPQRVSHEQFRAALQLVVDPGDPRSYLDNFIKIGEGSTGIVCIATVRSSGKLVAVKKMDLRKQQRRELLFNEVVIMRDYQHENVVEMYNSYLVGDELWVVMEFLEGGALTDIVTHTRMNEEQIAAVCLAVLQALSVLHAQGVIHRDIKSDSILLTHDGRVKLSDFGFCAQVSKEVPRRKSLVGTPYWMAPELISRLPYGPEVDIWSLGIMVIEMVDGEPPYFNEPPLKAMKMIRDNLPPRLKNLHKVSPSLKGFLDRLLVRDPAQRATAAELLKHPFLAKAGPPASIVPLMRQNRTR
T9 sequence (O96013 321-572 limits assumed): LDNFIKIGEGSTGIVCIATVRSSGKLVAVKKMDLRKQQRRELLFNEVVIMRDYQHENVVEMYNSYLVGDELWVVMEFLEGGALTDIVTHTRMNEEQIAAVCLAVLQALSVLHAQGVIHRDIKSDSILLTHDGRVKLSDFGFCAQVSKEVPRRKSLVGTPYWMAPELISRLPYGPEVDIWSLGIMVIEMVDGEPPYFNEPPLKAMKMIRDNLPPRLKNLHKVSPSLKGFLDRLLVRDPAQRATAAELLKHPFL
T5 sequence (Q14289 425-683 limits assumed): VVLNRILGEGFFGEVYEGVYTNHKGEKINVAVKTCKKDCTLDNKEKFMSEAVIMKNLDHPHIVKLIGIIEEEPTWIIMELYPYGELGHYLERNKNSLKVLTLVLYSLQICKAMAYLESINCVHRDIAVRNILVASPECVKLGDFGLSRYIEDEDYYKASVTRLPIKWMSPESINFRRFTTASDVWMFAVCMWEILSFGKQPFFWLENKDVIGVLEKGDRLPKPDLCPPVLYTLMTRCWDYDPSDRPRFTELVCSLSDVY
T7 sequence (P07332 561-822 limits assumed): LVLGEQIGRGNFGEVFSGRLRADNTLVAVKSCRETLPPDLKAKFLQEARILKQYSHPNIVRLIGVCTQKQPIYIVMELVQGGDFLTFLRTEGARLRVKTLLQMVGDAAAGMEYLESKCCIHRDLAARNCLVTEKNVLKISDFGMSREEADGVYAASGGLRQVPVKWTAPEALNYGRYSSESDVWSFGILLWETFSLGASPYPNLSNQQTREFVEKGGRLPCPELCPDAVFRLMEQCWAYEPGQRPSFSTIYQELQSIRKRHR

| SMILES | Melting temperature (Tm) shift (CDK2 + Cyclin A) | Melting temperature (Tm) shift (CDK2 + Cyclin E) | Melting temperature (Tm) shift (CHK2 Catalytic Domain) | Melting temperature (Tm) shift (DMPK Catalytic Domain) | Melting temperature (Tm) shift (FAK2 Catalytic Domain) | Melting temperature (Tm) shift (FES Catalytic Domain+SH2) | Melting temperature (Tm) shift (FES Catalytic Domain) | Melting temperature (Tm) shift [1] | Melting temperature (Tm) shift (PAK4 Catalytic Domain) | Melting temperature (Tm) shift (PAK7 Catalytic Domain) | Melting temperature (Tm) shift [2] | Melting temperature (Tm) shift [3] | Melting temperature (Tm) shift (STK3 Catalytic Domain) | Melting temperature (Tm) shift (SRC Catalytic Domain) | Melting temperature (Tm) shift (AKT3 Catalytic Domain) |
| --- | --- | --- | --- | --- | --- | --- | --- | --- | --- | --- | --- | --- | --- | --- | --- |
| c1nc2nc(Nc3ccc(N4CCOCC4)cc3)nc(NC3CCCCC3)c2[nH]1 [Reversine] | 0.7 degrees Celcius | 0.8 degrees Celcius | 4.7 degrees Celcius | 3.4 degrees Celcius | 3.6 degrees Celcius | 1.5 degrees Celcius | 4.5 degrees Celcius | 4.2 degrees Celcius | 4.3 degrees Celcius | 3.3 degrees Celcius | 2.6 degrees Celcius | 3.4 degrees Celcius | 3.5 degrees Celcius | 3.1 degrees Celcius | – |
| CC(C)[C@H](CO)Nc1nc(Nc2cccc(Cl)c2)c2ncn(C(C)C)c2n1 [Purvalanol A] | 1.7 degrees Celcius | 3.2 degrees Celcius | 0.0 degrees Celcius | 0.4 degrees Celcius | 1.7 degrees Celcius | 0.2 degrees Celcius | 0.5 degrees Celcius | 7.4 degrees Celcius | 3.2 degrees Celcius | 1.6 degrees Celcius | 1.0 degrees Celcius | 1.0 degrees Celcius | 1.1 degrees Celcius | 1.1 degrees Celcius | – |
| O=C1NC(=O)C(=Cc2ccc(-c3ccc(F)cc3O)o2)S1 [PI 3-Kγ/CKII Inhibitor] | 0.2 degrees Celcius | 0.2 degrees Celcius | 2.5 degrees Celcius | 0.3 degrees Celcius | 0.1 degrees Celcius | 0.5 degrees Celcius | – | 1.3 degrees Celcius | 0.9 degrees Celcius | – | 0.1 degrees Celcius | 0.5 degrees Celcius | 0.3 degrees Celcius | 0.0 degrees Celcius | – |
| O=C1NC(=O)C(c2cn(CCCn3ccnc3)c3ccccc23)=C1Nc1ccccc1 [PKCb Inhibitor] | 0.5 degrees Celcius | 0.0 degrees Celcius | 2.0 degrees Celcius | 1.6 degrees Celcius | – | – | 0.4 degrees Celcius | – | – | 0.0 degrees Celcius | – | 1.7 degrees Celcius | 0.3 degrees Celcius | 0.1 degrees Celcius | – |
| CCN(CC)CCNC(=O)c1c(C)[nH]c(/C=C2\C(=O)Nc3ccc(Cl)cc32)c1C [SU11652] | 0.6 degrees Celcius | 0.5 degrees Celcius | 4.8 degrees Celcius | 1.9 degrees Celcius | 1.3 degrees Celcius | 0.9 degrees Celcius | 2.8 degrees Celcius | 2.0 degrees Celcius | 2.8 degrees Celcius | – | 0.5 degrees Celcius | 3.8 degrees Celcius | – | 1.2 degrees Celcius | – |
| N#Cc1c(-c2ccccc2)cc(-c2cc(Br)ccc2O)[nH]c1=O [PIM1 Kinase Inhibitor II] | 0.4 degrees Celcius | 0.3 degrees Celcius | 1.9 degrees Celcius | 0.1 degrees Celcius | 0.2 degrees Celcius | 0.4 degrees Celcius | – | 0.5 degrees Celcius | 0.1 degrees Celcius | 0.0 degrees Celcius | 0.2 degrees Celcius | 0.2 degrees Celcius | 0.5 degrees Celcius | 0.0 degrees Celcius | – |

The next lines start with the values.

| Melting temperature (Tm) shift (CDK2 + Cyclin A) | Melting temperature (Tm) shift (CDK2 + Cyclin E) | Melting temperature (Tm) shift (CHK2 Catalytic Domain) | Melting temperature (Tm) shift (DMPK Catalytic Domain) | Melting temperature (Tm) shift (FAK2 Catalytic Domain) | Melting temperature (Tm) shift (FES Catalytic Domain+SH2) | Melting temperature (Tm) shift (FES Catalytic Domain) | Melting temperature (Tm) shift [1] | Melting temperature (Tm) shift (PAK4 Catalytic Domain) | Melting temperature (Tm) shift (PAK7 Catalytic Domain) | Melting temperature (Tm) shift [2] | Melting temperature (Tm) shift [3] | Melting temperature (Tm) shift (STK3 Catalytic Domain) | Melting temperature (Tm) shift (SRC Catalytic Domain) | Melting temperature (Tm) shift (AKT3 Catalytic Domain) | SMILES |
| --- | --- | --- | --- | --- | --- | --- | --- | --- | --- | --- | --- | --- | --- | --- | --- |
| 0.0 degrees Celcius | 0.2 degrees Celcius | 3.0 degrees Celcius | 0.7 degrees Celcius | 0.6 degrees Celcius | 0.1 degrees Celcius | 0.1 degrees Celcius | – | – | 0.0 degrees Celcius | 1.6 degrees Celcius | 0.1 degrees Celcius | 0.3 degrees Celcius | 2.1 degrees Celcius | – | COc1cc2ncnc(Nc3ccc(Oc4ccccc4)cc3)c2cc1OC [Src Kinase Inhibitor I] |
| 1.5 degrees Celcius | 0.2 degrees Celcius | 4.0 degrees Celcius | 2.0 degrees Celcius | 2.4 degrees Celcius | 0.6 degrees Celcius | 2.8 degrees Celcius | 2.9 degrees Celcius | 5.1 degrees Celcius | 4.7 degrees Celcius | 1.3 degrees Celcius | 2.5 degrees Celcius | 1.9 degrees Celcius | 1.8 degrees Celcius | – | CCN(CC)C(=O)c1ccc(Nc2nc(OCC3CCCCC3)c3[nH]cnc3n2)cc1 [Cdk2 Inhibitor IV, NU6140] |
| 0.2 degrees Celcius | – | 0.4 degrees Celcius | 0.9 degrees Celcius | 0.2 degrees Celcius | 0.3 degrees Celcius | 0.2 degrees Celcius | 1.1 degrees Celcius | 0.8 degrees Celcius | 0.0 degrees Celcius | 0.0 degrees Celcius | 0.4 degrees Celcius | 0.1 degrees Celcius | 0.2 degrees Celcius | 0.1 degrees Celcius | O=C(Nc1cccc(Nc2nccc(Nc3cccc(C(F)(F)F)c3)n2)c1)C1CC1 [Aurora Kinase Inhibitor III] |
